# Assay results published in article PMC9496228, “Plasma Clearance of Intravenously Infused Adrenomedullin in Rats with Acute Renal Failure” (Biomolecules, 2022).
# Where two headings read alike, the source gives them in different places.
# Columns and labels:
# [1] = Human adrenomedullin 60-min continuous intravenous infusion study in rats, plasma pharmacokinetics; type: in vivo, rat; conditions: mean ± SD; for level at time molar at 1 h / half-life / clearance: male, Lewis, rat, in vivo; for level at time molar at 1 h: 0.1 ug/kg/min, hAM iv infusion 0.1 µg/kg/min, read-out: Plasma AM concentration at 60 min after initiating treatment (AM C60); for half-life: read-out: T1/2β, half-life in the terminal phase after stopping infusion; for clearance: hAM iv infusion 0.1 µg/kg/min for 60 min, dose divided by AUC0–60, read-out: CLtotal, total systemic clearance
# Method: Renal dysfunction was induced by subcutaneous injection of 3 mg/kg mercury chloride (1 mg/mL saline) to rats (RD-Ag, n = 7) on the day before the adrenomedullin pharmacokinetic study. Control rats were treated with saline (normal renal function, NF, n = 5). Twenty-four hours after injection of mercury chloride (4 h before hAM administration), blood was collected from the tail vein of rats and serum creatinine (sCr) was measured using DRI-CHEM (FUJIFILM, Tokyo, Japan) to confirm the severity of renal damage. After the hAM administration study, the lungs and kidneys were removed from each group of rats, immersed in RNAlater (Thermo Fisher Scientific, Waltham, MA, USA), and frozen at −30 °C for later analysis.
# Rats were subjected to cannulation at the beginning as described below. After laparotomy through a midline abdominal incision, the bilateral renal artery and vein of the rat were exposed and blocked with vascular clips to develop another model of renal dysfunction (RD-Bl, n = 3). Immediately after the vascular blockade, the rats were studied for hAM infusion experiment.
# Rats under isoflurane anesthesia were placed on a heated surgical table in the supine position and subjected to cannulation (PE 50, Becton, Dickinson and Company, Franklin Lakes, NJ, USA) of the carotid artery and jugular vein. Human AM was dissolved in 20% mannitol to a concentration of 300 ng/mL and continuously administered at 0.1 µg/kg/min for 60 min via venous cannula using an infusion pump (KDS-100, KD Scientific, Holliston, MA, USA). After hAM administration had begun, 0.6 mL of whole blood was drawn from the arterial cannula at 0, 5, 10, 20, 30, 45, 60, 61.5, 63, 65, 70, 75, 80, and 90 min.
# (§1) To measure plasma hAM concentrations, whole blood was collected with 2 mg/mL EDTA-2Na and 500 Kallikrein Inhibitory Units (KIU)/mL of aprotinin. Plasma was obtained by centrifugation at 10,000× g for 2 min at 4 °C and stored at −30 °C until the assays were performed. Plasma hAM concentration was measured using an automated immunoassay system (AIA-System, Tosoh Corporation, Tokyo, Japan) that was described previously, including intra- and inter-assay variations. This system is a one-step fluorescence sandwich immunoassay for the detection of human AM using two monoclonal antibodies against human AM(12–25) and AM(46–52).
# Pharmacokinetic parameters in rats were calculated from individual plasma AM concentration vs time curves during and after 1 h intravenous infusion of hAM based on standard procedures. The area under the plasma concentration vs time curve (AUC0–60) was calculated during the first 60 min using a linear trapezoidal method, and the total systemic clearance (CLtotal) was calculated as the dose administered divided by AUC0–60. A plot of plasma concentration vs time after stopping hAM infusion yielded a biexponential curve. The elimination rate constant and half-life (T1/2β) in the terminal phase were calculated from individual plasma AM concentration vs time curves with a two-compartment model using the Solver tool in Microsoft Excel to minimize the sum of the squared residual values. Weighting was set to the standard deviation of plasma concentrations measured at each blood sampling point.
# [2] = Human adrenomedullin intraperitoneal administration study in E-RAMP2 KO and control mice, plasma concentration; conditions: mouse, in vivo, ip, 50 ug/kg, mean ± SD, read-out: Plasma AM concentration; for level at time molar at 10 min: 10 min after 50 μg/kg hAM intraperitoneally; for level at time molar at 0.5 h: 30 min after 50 μg/kg hAM intraperitoneally
# Method: E-RAMP2 KO mice (aged 9–10 weeks) were generated by intraperitoneal administration of 75 mg/kg tamoxifen suspended in corn oil (20 mg/mL) once daily for five consecutive days. Mice of the same strain treated only with corn oil were used as a control group. Three to four mice were prepared for each blood collection point.
# as §1
# [3] = biological target: AM receptor (CLR and RAMP2 or -3 heterodimeric receptors); conditions: read-out: equilibrium dissociation constant for its receptor (Kd); cited from earlier work
# From the text: Therefore, the administered AM appears to bind almost exclusively to its receptor and undergo receptor-mediated clearance. The AM receptor is made up of CLR and RAMP2 or -3 heterodimeric receptors. RAMP2 or -3 is a molecular chaperone required for CLR transport to the cell surface as well as for specifying the affinity of CLR for AM [35]. The distribution of ^125I-labeled AM in ...
# [4] = RD-Bl rats (bilateral renal blood flow blockage, n = 3)
compound,measurement,setting,value
"CC[C@H](C)[C@H](NC(=O)[C@H](CCC(N)=O)NC(=O)[C@H](Cc1c[nH]cn1)NC(=O)[C@H](C)NC(=O)[C@H](CC(C)C)NC(=O)[C@H](CCCCN)NC(=O)[C@H](CCC(N)=O)NC(=O)[C@@H](NC(=O)[C@@H](NC(=O)[C@@H]1CSSC[C@H](NC(=O)CNC(=O)[C@H](Cc2ccccc2)NC(=O)[C@H](CO)NC(=O)[C@H](CCCNC(=N)N)NC(=O)[C@H](CC(C)C)NC(=O)CNC(=O)[C@H](CCC(N)=O)NC(=O)[C@H](Cc2ccccc2)NC(=O)[C@H](CC(N)=O)NC(=O)[C@H](CC(N)=O)NC(=O)[C@H](CCSC)NC(=O)[C@H](CO)NC(=O)[C@H](CCC(N)=O)NC(=O)[C@H](CCCNC(=N)N)NC(=O)[C@@H](N)Cc2ccc(O)cc2)C(=O)N[C@@H](CCCNC(=N)N)C(=O)N[C@@H](Cc2ccccc2)C(=O)NCC(=O)N[C@@H]([C@@H](C)O)C(=O)N1)[C@@H](C)O)C(C)C)C(=O)N[C@@H](Cc1ccc(O)cc1)C(=O)N[C@@H](CCC(N)=O)C(=O)N[C@@H](Cc1ccccc1)C(=O)N[C@H](C(=O)N[C@@H](CC(=O)O)C(=O)N[C@@H](CCCCN)C(=O)N[C@@H](CC(=O)O)C(=O)N[C@@H](CCCCN)C(=O)N[C@@H](CC(=O)O)C(=O)N[C@@H](CC(N)=O)C(=O)N[C@H](C(=O)N[C@@H](C)C(=O)N1CCC[C@H]1C(=O)N[C@@H](CCCNC(=N)N)C(=O)N[C@@H](CO)C(=O)N[C@@H](CCCCN)C(=O)N[C@H](C(=O)N[C@@H](CO)C(=O)N1CCC[C@H]1C(=O)N[C@@H](CCC(N)=O)C(=O)NCC(=O)N[C@@H](Cc1ccc(O)cc1)C(N)=O)[C@@H](C)CC)C(C)C)[C@@H](C)O [AM, Human adrenomedullin]","T1/2β, half-life in the terminal phase after stopping infusion","[1]; RD-Ag rats (mercury chloride, n = 7), after 60-min iv infusion of hAM 0.1 µg/kg/min, two-compartment model",22.2 ± 9.8 min
same,level at time molar at 1 h,[1]; [4],0.0781 ± 0.0105 nM
same,half-life,"[1]; iv, 0.1 µg/kg/min, NF rats (n = 5), after 60-min iv infusion of hAM 0.1 µg/kg/min, two-compartment model",15 ± 1.4 min
same,clearance,"[1]; iv, 0.1 µg/kg/min, NF rats (n = 5)",45.1 ± 13.8 L/h/kg
same,level at time molar at 1 h,"[1]; iv, NF rats (n = 5)",0.049 ± 0.0136 nM
same,clearance,"[1]; iv, 0.1 µg/kg/min, RD-Ag rats (mercury chloride, n = 7)",11.5 ± 6.1 L/h/kg
same,level at time molar at 1 h,"[1]; iv, RD-Ag rats (mercury chloride, n = 7)",0.162 ± 0.0887 nM
same,half-life,"[1]; RD-Bl rats (bilateral renal blood flow blockage, n = 3), after 60-min iv infusion of hAM 0.1 µg/kg/min, two-compartment model",16.7 ± 1.8 min
same,clearance,[1]; [4],27 ± 4.13 L/h/kg
same,level at time molar at 10 min,[2]; E-RAMP2 KO mice (n = 3–4),3.98 ± 0.381 nM
same,level at time molar at 0.5 h,[2]; E-RAMP2 KO mice (n = 3–4),0.759 ± 0.234 nM
same,level at time molar at 10 min,"[2]; control mice (Cont, n = 3–4)",1.07 ± 0.595 nM
same,level at time molar at 0.5 h,"[2]; control mice (Cont, n = 3–4)",0.118 ± 0.0737 nM
same,Kd,[3],0.3 to 0.6 nM
